Measured values taken from patent US11053251B2, “GPR35 modulators” (Prometheus Biosciences, Inc., priority 2019, dated 2021).
pEC50: −log10 of the molar value.

Target: Human GPR35 (Homo sapiens, UniProt Q9HC97, S294R)
Assay: Alternative Beta-Arrestin Assay (JumpIn 294R Tango U2OS cells, LiveBLAzer-FRET B/G)
Assay type: cell-based
Conditions: Human GPR35 expressing JumpIn 294R Tango U2OS cells, 5 hours treatment
Experimental: Human GPR35 expressing JumpIn (Thermo Fisher) 294R Tango U2OS cells were plated in 384-well format in clear bottom plates at a cell density of 10,000 cells/well and allowed to grow overnight. The next day, cells were treated with serially diluted test compounds for 5 hours. LiveBLAzer-FRET B/G (CCF4-AM) detection reagents were then added and cells were allowed to incubate for 2 hours before reading plates on a BioTek Cytation 5 plate reader. Zaprinast was used as a positive control for dose-response curves. In order to determine EC50 values, data w ere fit to a four-parameter dose-response curves.

Sequence of Human GPR35 (Q9HC97 whole entry S294R): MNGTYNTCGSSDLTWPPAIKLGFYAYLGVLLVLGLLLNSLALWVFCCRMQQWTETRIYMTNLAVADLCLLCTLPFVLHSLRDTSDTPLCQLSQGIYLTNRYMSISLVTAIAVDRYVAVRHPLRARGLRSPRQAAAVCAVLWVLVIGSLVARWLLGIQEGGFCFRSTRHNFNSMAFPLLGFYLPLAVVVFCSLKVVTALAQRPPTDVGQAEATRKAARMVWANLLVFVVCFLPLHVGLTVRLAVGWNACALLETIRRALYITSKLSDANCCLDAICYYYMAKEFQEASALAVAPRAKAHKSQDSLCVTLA

Row | pEC50 | SMILES
1 | ≥ 5.00 | CCOc1cc(-c2cccc(C[C@@H](O)C(=O)O)c2)ccc1-c1nc2[nH]nnc2c(=O)[nH]1 [Compound 284, (R)-3-(3′-ethoxy-4′-(7-oxo-6,7-dihydro-3H-[1,2,3]triazolo[4,5-d]pyrimidin-5-yl)-[1,1′-biphenyl]-3-yl)-2-hydroxypropanoic acid]
2 | ≥ 5.00 | CCOc1cc(-c2cc(F)cc(O[C@H](C)C(=O)O)c2)ccc1-c1nc2[nH]nnc2c(=O)[nH]1 (single isomer, unassigned) [Compound 262]
3 | ≥ 5.00 | CCOc1cc(-c2cccc(CC(=O)O)c2)ccc1-c1nc2[nH]nnc2c(=O)[nH]1 [Compound 295, 2-(3′-ethoxy-4′-(7-oxo-6,7-dihydro-3H-[1,2,3]triazolo[4,5-d]pyrimidin-5-yl)-[1,1′-biphenyl]-3-yl)acetic acid]
4 | ≥ 5.00 | CCOc1cc(-c2cc(OCC(=O)OC)cc(C(=O)OC)c2)ccc1-c1nc2[nH]nnc2c(=O)[nH]1 [Compound 218, Methyl 3′-ethoxy-5-(2-methoxy-2-oxoethoxy)-4′-(7-oxo-6,7-dihydro-3H-[1,2,3]triazolo[4,5-d]pyrimidin-5-yl)-[1,1′-biphenyl]-3-carboxylate]
5 | ≥ 5.00 | CCOc1cc(-c2cccc(C[C@H](NC(C)=O)C(=O)O)c2)ccc1-c1nc2[nH]nnc2c(=O)[nH]1 [Compound 293, (S)-2-acetamido-3-(3′-ethoxy-4′-(7-oxo-6,7-dihydro-3H-[1,2,3]triazolo[4,5-d]pyrimidin-5-yl)-[1,1′-biphenyl]-3-yl)propanoic acid]
6 | ≥ 5.00 | CCOc1cc(-c2cccc(NC(C)(C)C(=O)O)c2)ccc1-c1nc2[nH]nnc2c(=O)[nH]1 [Compound 224, 2-((3′-Ethoxy-4′-(7-oxo-6,7-dihydro-3H-[1,2,3]triazolo[4,5-d]pyrimidin-5-yl)-[1,1′-biphenyl]-3-yl)amino)-2-methylpropanoic acid]
7 | ≥ 5.00 | CCOc1cc(-c2nc3[nH]nnc3c(=O)[nH]2)ccc1-c1cccc(OCC(=O)O)c1 [Compound 217, 2-((2′-Ethoxy-4′-(7-oxo-6,7-dihydro-3H-[1,2,3]triazolo[4,5-d]pyrimidin-5-yl)-[1,1′-biphenyl]-3-yl)oxy)acetic acid]
8 | 4.30 to 5.00 | CN(C)CCCOc1cc(-c2ccc(C(=O)O)cc2)ccc1-c1nc2[nH]nnc2c(=O)[nH]1 [Compound 229, 3′-(3-(Dimethylamino)propoxy)-4′-(7-oxo-6,7-dihydro-3H-[1,2,3]triazolo[4,5-d]pyrimidin-5-yl)-[1,1′-biphenyl]-4-carboxylic acid]
9 | ≥ 5.00 | CCOc1cc(-c2cc(O)cc(O[C@@H](C)C(=O)O)c2)ccc1-c1nc2[nH]nnc2c(=O)[nH]1 (single isomer, unassigned) [Compound 256]
10 | ≥ 5.00 | CCOc1cc(-c2cccc(CC(C)(C)C(=O)O)c2)ccc1-c1nc2[nH]nnc2c(=O)[nH]1 [Compound 243, 3-(3′-ethoxy-4′-(7-oxo-6,7-dihydro-3H-[1,2,3]triazolo[4,5-d]pyrimidin-5-yl)-[1,1′-biphenyl]-3-yl)-2,2-dimethylpropanoic acid]
11 | ≥ 5.00 | CCOc1cc(-c2nc3[nH]nnc3c(=O)[nH]2)ccc1-c1ccc(C(=O)O)cc1 [Compound 195, 2′-Ethoxy-4′-(7-oxo-6,7-dihydro-3H-[1,2,3]triazolo[4,5-d]pyrimidin-5-yl)-[1,1′-biphenyl]-4-carboxylic acid]
12 | ≥ 5.00 | O=C(O)c1ccc(O)c(-c2ccc(-c3nc4[nH]nnc4c(=O)[nH]3)c(OC3CCCC3)c2)c1 [Compound 210, 3′-(Cyclopentyloxy)-6-hydroxy-4′-(7-oxo-6,7-dihydro-3H-[1,2,3]triazolo[4,5-d]pyrimidin-5-yl)-[1,1′-biphenyl]-3-carboxylic acid]
13 | ≥ 5.00 | CCOc1cc(-c2ccc(OC(C)C)c(CC(C)C(=O)O)c2)ccc1-c1nc2[nH]nnc2c(=O)[nH]1 (stereo not shown) [Compound 302, 3-(3′-ethoxy-4-isopropoxy-4′-(7-oxo-6,7-dihydro-3H-[1,2,3]triazolo[4,5-d]pyrimidin-5-yl)-[1,1′-biphenyl]-3-yl)-2-methylpropanoic acid]
14 | ≥ 5.00 | CCOc1cc(-c2cccc(CC(C)C(=O)O)c2)ccc1-c1nc2[nH]nnc2c(=O)[nH]1 (stereo not shown) [Compound 238, 3-(3′-ethoxy-4′-(7-oxo-6,7-dihydro-3H-[1,2,3]triazolo[4,5-d]pyrimidin-5-yl)-[1,1′-biphenyl]-3-yl)-2-methylpropanoic acid]
15 | ≥ 5.00 | CCOc1cc(-c2ccc(C(=O)O)c(OCC(=O)O)c2)ccc1-c1nc2[nH]nnc2c(=O)[nH]1 [Compound 220, 3-(Carboxymethoxy)-3′-ethoxy-4′-(7-oxo-6,7-dihydro-3H-[1,2,3]triazolo[4,5-d]pyrimidin-5-yl)-[1,1′-biphenyl]-4-carboxylic acid]
16 | ≥ 5.00 | CCOc1cc(-c2cc(C)cc(O[C@H](C)C(=O)O)c2)ccc1-c1nc2[nH]nnc2c(=O)[nH]1 [Compound 266, (R)-2-((3′-ethoxy-5-methyl-4′-(7-oxo-6,7-dihydro-3H-[1,2,3]triazolo[4,5-d]pyrimidin-5-yl)-[1,1′-biphenyl]-3-yl)oxy)propanoic acid]

Row | pEC50 | SMILES
17 | ≥ 5.00 | CCOc1cc(-c2cccc([C@H]3C[C@H]3C(=O)O)c2)ccc1-c1nc2[nH]nnc2c(=O)[nH]1 (single isomer, unassigned) [Compound 308, cis-2-(3′-ethoxy-4′-(7-oxo-6,7-dihydro-3H-[1,2,3]triazolo[4,5-d]pyrimidin-5-yl)-[1,1′-biphenyl]-3-yl)cyclopropane-1-carboxylic acid]
18 | ≥ 5.00 | CCOc1cc(-c2cc(C(=O)O)n(C)c2)ccc1-c1nc2[nH]nnc2c(=O)[nH]1 [Compound 192, 4-(3-ethoxy-4-(7-oxo-6,7-dihydro-3H-[1,2,3]triazolo[4,5-d]pyrimidin-5-yl)phenyl)-1-methyl-1H-pyrrole-2-carboxylic acid]
19 | ≥ 5.00 | CCOc1cc(-c2nc(C(=O)O)co2)ccc1-c1nc2[nH]nnc2c(=O)[nH]1 [Compound 188, 2-(3-ethoxy-4-(7-oxo-6,7-dihydro-3H-[1,2,3]triazolo[4,5-d]pyrimidin-5-yl)phenyl)oxazole-4-carboxylic acid]
20 | ≥ 5.00 | CCOc1cc(-c2cccc(C(C)C(=O)O)c2)ccc1-c1nc2[nH]nnc2c(=O)[nH]1 (stereo not shown) [Compound 297, 2-(3′-ethoxy-4′-(7-oxo-6,7-dihydro-3H-[1,2,3]triazolo[4,5-d]pyrimidin-5-yl)-[1,1′-biphenyl]-3-yl)propanoic acid]
21 | 4.30 to 5.00 | O=C(O)CNc1cccc(-c2ccc(-c3nc4[nH]nnc4c(=O)[nH]3)c(OCCN3CCCC3)c2)c1 [Compound 230, (4′-(7-Oxo-6,7-dihydro-3H-[1,2,3]triazolo[4,5-d]pyrimidin-5-yl)-3′-(2-(pyrrolidin-1-yl)ethoxy)-[1,1′-biphenyl]-3-yl)glycine]
22 | ≥ 5.00 | CCOC(=O)Cc1cccc(-c2ccc(-c3nc4[nH]nnc4c(=O)[nH]3)c(OCC)c2)c1 [Compound 294, ethyl 2-(3′-ethoxy-4′-(7-oxo-6,7-dihydro-3H-[1,2,3]triazolo[4,5-d]pyrimidin-5-yl)-[1,1′-biphenyl]-3-yl)acetate]
23 | ≥ 5.00 | CCOc1cc(-c2ccc(F)c(O[C@@H](C)C(=O)O)c2)ccc1-c1nc2[nH]nnc2c(=O)[nH]1 [Compound 265, (S)-2-((3′-ethoxy-4-fluoro-4′-(7-oxo-6,7-dihydro-3H-[1,2,3]triazolo[4,5-d]pyrimidin-5-yl)-[1,1′-biphenyl]-3-yl)oxy)propanoic acid]
24 | ≥ 5.00 | O=C(O)c1cccc(-c2ccc(-c3nc4[nH]nnc4c(=O)[nH]3)c(OC3CCCC3)c2)c1O [Compound 209, 3′-(Cyclopentyloxy)-2-hydroxy-4′-(7-oxo-6,7-dihydro-3H-[1,2,3]triazolo[4,5-d]pyrimidin-5-yl)-[1,1′-biphenyl]-3-carboxylic acid]
25 | ≥ 5.00 | CCOc1cc(-c2cccc(/C=C(\C)C(=O)O)c2)ccc1-c1nc2[nH]nnc2c(=O)[nH]1 (single isomer, unassigned) [Compound 237, (E)-3-(3′-ethoxy-4′-(7-oxo-6,7-dihydro-3H-[1,2,3]triazolo[4,5-d]pyrimidin-5-yl)-[1,1′-biphenyl]-3-yl)-2-methylacrylic acid]
26 | ≥ 5.00 | CCOc1cc(-c2cc(F)c(F)c(O[C@@H](C)C(=O)O)c2)ccc1-c1nc2[nH]nnc2c(=O)[nH]1 (single isomer, unassigned) [Compound 261]
27 | ≥ 5.00 | CCOc1cc(-c2ccc(OCCN3CCCC3)c(CCC(=O)O)c2)ccc1-c1nc2[nH]nnc2c(=O)[nH]1 [Compound 318, 3-(3′-ethoxy-4′-(7-oxo-6,7-dihydro-3H-[1,2,3]triazolo[4,5-d]pyrimidin-5-yl)-4-(2-(pyrrolidin-1-yl)ethoxy)-[1,1′-biphenyl]-3-yl)propanoic acid]
28 | ≥ 5.00 | CCOc1cc(-c2ccc(O)c(OC(C)C(=O)O)c2)ccc1-c1nc2[nH]nnc2c(=O)[nH]1 (stereo not shown) [Compound 280, 2-((3′-ethoxy-4-hydroxy-4′-(7-oxo-6,7-dihydro-3H-[1,2,3]triazolo[4,5-d]pyrimidin-5-yl)-[1,1′-biphenyl]-3-yl)oxy)propanoic acid]
29 | ≥ 5.00 | CCOc1cc(-c2cccc(C[C@H](O)C(=O)O)c2)ccc1-c1nc2[nH]nnc2c(=O)[nH]1 [Compound 282, (S)-3-(3′-ethoxy-4′-(7-oxo-6,7-dihydro-3H-[1,2,3]triazolo[4,5-d]pyrimidin-5-yl)-[1,1′-biphenyl]-3-yl)-2-hydroxypropanoic acid]
30 | ≥ 5.00 | CCOc1cc(-c2ccc(OCCN(C)C)c(/C=C/C(=O)O)c2)ccc1-c1nc2[nH]nnc2c(=O)[nH]1 [Compound 319, (E)-3-(4-(2-(dimethylamino)ethoxy)-3′-ethoxy-4′-(7-oxo-6,7-dihydro-3H-[1,2,3]triazolo[4,5-d]pyrimidin-5-yl)-[1,1′-biphenyl]-3-yl)acrylic acid]
31 | ≥ 5.00 | CCOC(=O)C(C)c1cccc(-c2ccc(-c3nc4[nH]nnc4c(=O)[nH]3)c(OCC)c2)c1 (stereo not shown) [Compound 296, ethyl 2-(3′-ethoxy-4′-(7-oxo-6,7-dihydro-3H-[1,2,3]triazolo[4,5-d]pyrimidin-5-yl)-[1,1′-biphenyl]-3-yl)propanoate]
